Reference: PMC1199608 (Cancer Cell International, 2005)
“Also recorded” adds a separate entry of the source. Where two headings read alike, the source gives them in different places. No end group written: not given here.

Tests used:
Jurkat cells [1] = assay: Apoptosis by electron microscopy; assay type: cell-based; conditions: 4-hr incubation, 62.5 μM Pep27anal2, 100 μM etoposide, 200–400 cells counted per group
Method: Jurkat cells were harvested and immediately fixed in phosphate-buffered glutaraldehyde solution (pH 7.2) for 2 hrs and then fixed in 1% buffered osmium tetroxide for 2 hrs at 4°C. After processing through a graded series of ethanol and propylene oxide, the cells were embedded in Epon. A semi-thin (1 μm) section was cut and stained with toluidine blue for the ultrastructural examination. Ultra-thin (60–90 nm) sections were also prepared from the Epon block above using an ultramicrotome (LKB-V, Sweden), stained with uranyl acetate and lead citrate, and examined under a Hitachi H-7600 electron microscope (Hitachi, Kyoto, Japan). Apoptosis detection was done by taking photographs (×1,000) of the entire field of each ultra-thin sectioned sample. The degree of apoptosis (apoptosis index) was defined as the number of apoptotic cells expressed as a percentage of the total cell count.

Jurkat cells [2] = assay: Apoptosis and membrane integrity by flow cytometry (annexin V-FITC / PI); assay type: cell-based; conditions: 4 hr, 12.5 μM or 63 μM Pep27anal2, 12.5 μM mellitin, 100 μM etoposide
Method: Annexin V binding was assessed by flow cytometry, and cell staining was evaluated using FITC-labeled annexin V (green fluorescence), and propidium iodide (PI) ([…]) simultaneously. This test was able to discriminate between intact cells (FITC-/PI-), apoptotic cells (FITC+/PI-) and necrotic cells (FITC+/PI+) (Vermes et al., 1995). Jurkat cells (10^5/ml) were exposed to etoposide (100 μM), mellitin (12.5 μM) and Pep27anal2 (12.5 μM and 62.5 μM) for 4 hr. Cells were washed with PBS, resuspended in 400 μl of binding buffer (10 mM Hepes/NaOH, pH 7.4, 140 mM NaCl, 2.5.mM CaCl2), and incubated with 10 μl of annexin V-FITC (MedSystems Diagnostics, GmbH, […]) for 10 min at room temperature. After incubation, cells were washed with binding buffer and exposed to 1 μg of PI in a final volume of 400 μl. FITC and PI fluorescences were determined using a flow cytometer (Becton Dickinson, Franklin Lakes, FL, USA)
In the present study, Jurkat cells were treated with 100 μM of etoposide, 12.5 μM of mellitin or 12.5 μM or 63 μM of Pep27anal2 for 4 hr. Apoptosis and membrane integrity were then determined using annexin V and propidium iodide, respectively, as described in "Materials and methods". […] Dead cells appear first in the lower right quadrant (apoptosis), where death was due to the externalization of PS (detected with annexin V-FITC).

Jurkat cells [3] = assay: Cytochrome c release from mitochondria to cytosol (Western blotting); assay type: cell-based; conditions: Jurkat cells (5 × 10^5/ml), 62.5 μM, 4 h
Method: Cytochrome c immunoblotting was performed using a slight modification of a previously described method. Jurkat cells were collected by centrifugation at 200 g for 5 min at 4°C. The cells were then washed twice with ice-cold PBS, pH 7.4, and centrifuged at 200 g for 5 min. The cell pellet obtained was then resuspended in 600 μl of extraction buffer, containing 20 mM Hepes-KOH (pH 7.5), 10 mM KCl, 250 mM sucrose, 1 mM EGTA, 1 mM EDTA, 1.5 mM MgCl2, 1 mM dithiothreitol and 0.1 mM phenylmethylsulfonyl fluoride.
After incubation for 30 min on ice, the cells were homogenized (20 strokes), spun at 14,000 g for 15 min, supernatants were separated from the mitochondrial fraction, and both were stored at -70°C, until required for gel electrophoresis. The mitosol fraction was obtained by adding 0.1% SDS. […]
Cytochrome c is a well-characterized mitochondrial protein and is involved in cellular energy metabolism. […] After these incubations, cytochrome c in the cytosol fraction, obtained by 14,000 g centrifugation for 15 min, and in the mitosol, obtained by adding 0.1% SDS to the mitochondrial fraction, was determined by Western blotting.

[4] = tested on: AML-2 acute myelogenous leukemia cell line; conditions: MTT assay, from semilogarithmic dose-response curves, at least in duplicate
Method: (§1) OCI-AML-2 (AML-2) cell line was obtained from the Ontario Cancer Institute (Toronto, Canada), and Jurkart and HL-60 cell lines from the American Type Culture Collection (ATCC, USA). These three cell lines were cultured at 37°C in a 5% CO2 atmosphere using α-MEM medium (GibcoBRL, Gland Island, NY, USA) containing 10% heat-inactivated fetal bovine serum (FBS, Sigma, ST. Louis, MO, USA). MCF-7 and NIH/3T3 cell lines from ATCC and SNU-601 cell line from the Korean Cancer Cell Bank (Seoul, Korea) were cultured under the same conditions but using RPMI-1640 medium (GibcoBRL, Gland Island, NY, USA) containing 10% heat-inactivated FBS. Cells were maintained in suspension or as monolayer cultures, and subcultured.
(§2) The in vitro cytotoxicity of the Pep27 analogues produced was measured by MTT [3-(4,5-dimethylthiazol-2-yl)-2,5-diphenyl tetrazolium bromide, Sigma, ST. Louis, USA] assay, as described by. IC50 values were determined directly from semilogarithmic dose-response curves. Experiments were carried out at least in duplicate.
(§3) To evaluate the anticancer activities of the Pep27 analogues, different concentrations of these peptides were administered to various cancer cell lines, and cytotoxicities were then determined by MTT assay. In this study, we used both anchorage-dependent and independent cancer cell lines. These included AML-2 an acute myelogenous leukemia cell line, HL-60 an acute promyelocytic leukemia cell line, Jurkat a T cell leukemia cell line, SNU-601 a gastric cancer cell line and MCF-7 a breast cancer cell line.

[5] = tested on: HL-60 acute promyelocytic leukemia cell line; conditions: MTT assay, from semilogarithmic dose-response curves, at least in duplicate
Method: as §1, §2, §3

[6] = tested on: Jurkat T cell leukemia cell line; conditions: MTT assay, from semilogarithmic dose-response curves, at least in duplicate
Method: as §1, §2, §3

[7] = tested on: MCF-7 breast cancer cell line; conditions: MTT assay, from semilogarithmic dose-response curves, at least in duplicate
Method: as §1, §2, §3

[8] = tested on: SNU-601 gastric cancer cell line; conditions: MTT assay, from semilogarithmic dose-response curves, at least in duplicate
Method: as §1, §2, §3

human erythrocytes = conditions: 4% human erythrocytes in PBS pH 7.0, 1 h at 37°C, absorbance 414 nm, 100% = 0.1% Triton-100
Method: Peptide hemolytic activities were measured as described by, by determining hemoglobin release by 4% suspensions of fresh human erythrocytes at 414 nm. Briefly, human erythrocyte cells were centrifuged and washed three times with phosphate-buffered saline (PBS: 35 mM phosphate buffer/0.15 M NaCl, pH 7.0). […] of human red blood cells suspended 8% (v/v) in PBS were the inoculated into 96-well plates. […] of the peptide solution, Pep27 or its analogues, was then added to each well. The plates were incubated for 1 h at 37°C, and centrifuged at 150 g for 5 min. […] aliquots of the supernatant obtained were transferred to flat-bottom 96-microtiter plates. Hemolysis was determined by measuring absorbance at 414 nm with an ELISA plate reader (Molecular Devices Emax, Sunnyvale, CA, USA). Hemolysis rates of 0% or 100% were determined as the same way with PBS and 0.1% Triton-100, respectively. Hemolysis percent was calculated using the following equation: % hemolysis = [(Abs414nm in the peptide solution - Abs414nm in PBS)/(Abs414nm in 0.1% Triton-100 - Abs414nm in PBS)] × 100.

Row | Compound | apoptosis (apoptotic cells by electron microscopy) (Jurkat cells [1]) | annexin V-FITC staining (apoptosis) and PI staining (membrane integrity) (Jurkat cells [2]) | cytochrome c release from mitochondria into the cytosol (Jurkat cells [3]) | IC50 [4] | IC50 [5] | IC50 [6] | IC50 [7] | IC50 [8] | % Hemolysis (human erythrocytes; 0.19 μM peptide) | % Hemolysis (human erythrocytes; 0.39 μM peptide) | % Hemolysis (human erythrocytes; 0.78 μM peptide) | % Hemolysis (human erythrocytes; 1.56 μM peptide) | % Hemolysis (human erythrocytes; 3.12 μM peptide) | % Hemolysis (human erythrocytes; 6.25 μM peptide) | % Hemolysis (human erythrocytes; 12.5 μM peptide)
1 | COc1cc([C@@H]2c3cc4c(cc3[C@@H](O[C@@H]3O[C@@H]5CO[C@@H](C)O[C@H]5[C@H](O)[C@H]3O)[C@H]3COC(=O)[C@H]23)OCO4)cc(OC)c1O [Etoposide, etoposide, reference compound] | Apoptotic cells were more frequent than in the control group | – | – | – | – | – | – | – | – | – | – | – | – | – | –
2 | MWKWFHNVLSWWWLLADKRPARDYNRK-NH2 [Pep27anal2] | Apoptotic cells were most frequent in this group; also recorded: induced more apoptosis than 100 μM of etoposide | caused a higher level of annexin V-FITC staining with a little increase of PI staining than etoposide | did not induce cytochrome c release | – | – | – | – | – | – | – | – | – | – | – | –
3 | MWKEFHNVLSSGQLLADKRWARWYNRW-NH2 [Pep27anal4] | – | – | – | 50 µM | 51 µM | 46 µM | 29 µM | 37 µM | 0% | 0% | 0% | 0% | 0% | 0% | 0%
4 | MRKEFHNVLSSGQLLADKRPARDYNRK-NH2 [Pep27, reference compound] | – | – | – | > 70 µM | > 70 µM | > 70 µM | > 70 µM | > 70 µM | 0% | 0% | 0% | 0% | 0% | 0% | 0%
5 | CC[C@H](C)[C@H](NC(=O)CN)C(=O)NCC(=O)N[C@@H](C)C(=O)N[C@H](C(=O)N[C@@H](CC(C)C)C(=O)N[C@@H](CCCCN)C(=O)N[C@H](C(=O)N[C@@H](CC(C)C)C(=O)N[C@H](C(=O)N[C@H](C(=O)NCC(=O)N[C@@H](CC(C)C)C(=O)N1CCC[C@H]1C(=O)N[C@@H](C)C(=O)N[C@@H](CC(C)C)C(=O)N[C@H](C(=O)N[C@@H](CO)C(=O)N[C@@H](Cc1c[nH]c2ccccc12)C(=O)N[C@H](C(=O)N[C@@H](CCCCN)C(=O)N[C@@H](CCCNC(=N)N)C(=O)N[C@@H](CCCCN)C(=O)N[C@@H](CCCNC(=N)N)C(=O)N[C@@H](CCC(N)=O)C(=O)N[C@@H](CCC(N)=O)C(N)=O)[C@@H](C)CC)[C@@H](C)CC)[C@@H](C)O)[C@@H](C)O)C(C)C)C(C)C [Mellitin, reference compound] | – | increased the distribution of PI staining without an increase of annexin V-FITC staining | – | – | – | – | – | – | – | – | – | – | – | – | –
6 | MWKWFHNVLSSGQLLADKWWAWWYNWW-NH2 [Pep27anal5] | – | – | – | > 70 µM | > 70 µM | > 70 µM | > 70 µM | > 70 µM | 0% | 0% | 0% | 0% | 0% | 0% | 0%
